The record followed here is US10968196B2, “Substituted β-lapachones for treating cancer” (University of Pittsburgh—Of the Commonwealth System of …, priority 2015, dated 2021).

Structures are written as SMILES.

Holding throughout (format): cell-based
Experiment [1] deals with A549 cells. Nature of the experiment: Vacuole formation by phase contrast microscopy. The settings on record: A549, 6 μM, 20 h, phase contrast microscopy (FIG. 3D). As for the experimental part:
(3A) A549 non-small cell lung cancer cells were treated with XJB-OMe, 3-hydroxy-β-lapachone (14), or XJB-lapachone (18) at indicated concentrations for 24 h. Cell viability was determined by a CellTiter-Blue assay. Data represents the mean±SEM. (3B) PEO1 ovarian cancer cells, MDA-MB-231 breast cancer cells, and 983B melanoma cells were treated with XJB-lapachone (18) at indicated concentrations for 24 h. Cell viability was determined by a CellTiter-Blue assay. Data represents the mean±SEM. (3C) Equal numbers of A549 and IMR90 lung fibroblast cells were treated with 10 μM XJB-lapachone (18) for 4 h. XJB-lapachone was then washed away and cells were incubated in drug free media for 3 days. Cell viability was determined by a CellTiter-Blue assay. (3D) A549 cells were treated with XJB-OMe, 3-hydroxy-β-lapachone (14), or XJB-lapachone (18) at 6 μM concentrations for 20 h. The formation of vacuoles was examined by phase contrast microscopy. Representative images are shown. (3E) A549 cells were treated as described above. Apoptotic and necrotic cell death were determined by Annexin V and PI staining. Representative images are shown.
Microscopy: For vacuole imaging, A549 cells were plated in 12-well plate, treated with compounds and the phase contrast images were captured using a Nikon Eclipse TS100 inverted microscope. […]

The test system of experiment [2] is A549 cells. Kind of experiment: Oxygen consumption rate, Seahorse extracellular flux analysis. The following applies: A549, 6 μM, 16 h, Seahorse (FIG. 4B). As for the experimental part: (4A) A549 cells were treated with XJB-OMe, 3-hydroxy-β-lapachone (14), or XJB-lapachone (18) at 6 μM for 16 h. The generation of ROS was determined by staining cells with MitoSox and DCFHDA. The fluorescence intensity was measured by flow cytometry. Data represents the mean±S.D. of triplicates. (4B) A549 cells were treated as described in A, and the oxygen consumption rate was determined by a Seahorse extracellular flux analyzer. […] (4C) A549 cells were treated as described in A, and mitochondria morphology was examined by electron microscopy. Representative images are shown. (4D) A549 cells were treated as described above. The expression of the autophagy marker LC3 was examined by western blot. β-actin was used as a loading control. Representative images are shown.
Extracellular flux (XF) analysis: Oxygen consumption rate (OCR) was measured using a Seahorse XF96 Extracellular Flux Analyzer (Seahorse Bioscience, North Billerica, Mass.), as previously described (Qian W, et al., Alterations in bioenergetics due to changes in mitochondrial DNA copy number. Methods 2010 51:452-457). Briefly, A549 cells were plated in a 6-well plate and treated with compounds for 16 h. After treatment, cells were trypsinized, counted, and plated at 40,000 cells per well in a XF96 microplate using Cell-Tak cell adhesive. OCR measurements were then performed using a XF96 analyzer.

A further experiment concerns MDA-MB-231 rho0 cells. Kind of experiment: Celltiter-blue cell viability in rho0 cells. The following applies: MDA-MB-231 rho0 cells (mtDNA depleted), increasing concentrations, 24 h (FIG. 8). As for the experimental part:
MDA-MB-231 parental and rho0 cells (established by long-term culture of parental MDA-MB-231 cells in the presence of 50 ng/ml ethidium bromide) were treated with increasing concentrations of XJB-lapachone for 24 h. Cell viability was determined by Celltiter-blue.

As to `CC1(C)OC2=C(CC1O)C(=O)C(=O)c1ccccc12` (stereo not drawn) [3-hydroxy-β-lapachone, reference compound], the “vacuolization (formation of vacuoles)” value with A549 cells [1] is recorded as “not detected”. Also, the “inhibition of mitochondrial respiration (oxygen consumption) by oligomycin after treatment” value with A549 cells [2] is recorded as “oligomycin was efficient in inhibiting the mitochondrial respiration”. Also, in the experiment on MDA-MB-231 rho0 cells, the “induction of cell death in rho0 cells (cell viability)” value is on record as “not”.
